# US20250163054A1, “SUBSTITUTED BICYCLIC HETEROARYL COMPOUNDS USEFUL AS INHIBITORS OF TLR9” (Bristol-Myers Squibb Company, priority 2022, published 2025)
# Legend:
# Format in all cases: cell-based
# human TLR7 = molecular target: T1, human TLR7 (Homo sapiens, UniProt Q9NYK1); test: TLR7/8/9 Inhibition Reporter Assays (TLR7); conditions: HEK-Blue cells overexpressing human TLR7, SEAP reporter, stimulated with TLR7 ligand gardiquimod
# T1 construct: host or cells: HEK-Blue cells (HEK293-derived reporter line)
# T1 sequence (Q9NYK1 27-1049): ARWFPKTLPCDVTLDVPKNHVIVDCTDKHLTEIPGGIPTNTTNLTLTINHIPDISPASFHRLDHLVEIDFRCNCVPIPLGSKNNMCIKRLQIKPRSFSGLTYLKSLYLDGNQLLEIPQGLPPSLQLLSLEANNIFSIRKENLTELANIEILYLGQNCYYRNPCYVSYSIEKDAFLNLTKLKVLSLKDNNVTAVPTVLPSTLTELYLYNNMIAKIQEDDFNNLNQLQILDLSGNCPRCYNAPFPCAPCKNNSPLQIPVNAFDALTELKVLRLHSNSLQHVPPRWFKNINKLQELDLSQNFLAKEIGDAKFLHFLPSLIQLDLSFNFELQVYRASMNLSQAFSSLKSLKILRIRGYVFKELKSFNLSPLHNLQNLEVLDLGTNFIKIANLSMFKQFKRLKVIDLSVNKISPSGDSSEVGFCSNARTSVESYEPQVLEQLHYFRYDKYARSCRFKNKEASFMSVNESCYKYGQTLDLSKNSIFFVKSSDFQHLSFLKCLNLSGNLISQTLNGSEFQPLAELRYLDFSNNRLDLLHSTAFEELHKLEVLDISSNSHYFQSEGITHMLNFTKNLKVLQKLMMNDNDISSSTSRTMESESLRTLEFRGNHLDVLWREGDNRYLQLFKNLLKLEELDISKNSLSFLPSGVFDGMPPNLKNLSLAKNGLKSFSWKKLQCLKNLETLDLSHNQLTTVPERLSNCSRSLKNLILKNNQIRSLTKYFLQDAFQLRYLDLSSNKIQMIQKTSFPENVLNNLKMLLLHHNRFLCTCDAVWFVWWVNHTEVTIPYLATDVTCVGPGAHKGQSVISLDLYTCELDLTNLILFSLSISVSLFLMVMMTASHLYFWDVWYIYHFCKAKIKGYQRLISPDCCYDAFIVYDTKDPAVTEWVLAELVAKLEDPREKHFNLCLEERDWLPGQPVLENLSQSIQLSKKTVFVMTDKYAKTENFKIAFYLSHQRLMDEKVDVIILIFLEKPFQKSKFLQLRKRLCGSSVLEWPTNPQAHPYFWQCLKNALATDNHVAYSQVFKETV
# Procedure: (§1) HEK-Blue™-cells (Invivogen) overexpressing human TLR7, TLR8 or TLR9 receptors were used for screening inhibitors of these receptors using an inducible SEAP (secreted embryonic alkaline phosphatase) reporter gene under the control of the IFN-β minimal promoter fused to five NF-κB and AP-1-binding sites. Cells are seeded into Greiner 384 well plates (15000 cells per well) that are predispensed (by ECHO) with testing compounds in DMSO to yield a final dose response concentration range of 0.85 nM-[…]. After a 60 minute compound pre-treatment in 37° C. incubator, the cells are then stimulated with a TLR7 ligand (gardiquimod at a final concentration of […]), TLR8 ligand (R848 at a final concentration of […]) or TLR9 ligand (ODN2006 at a final concentration of 200 nM) to activate NF-κB and AP-1 which induce the production of SEAP. After a 22 hour incubation at 37° C., 5% CO2, SEAP levels are determined with the addition of HEK-Blue™ Detection reagent (Invivogen), a cell culture medium that allows for detection of SEAP, according to manufacturer's specifications. The percent inhibition is determined as the % reduction in the HEK-Blue signal present in wells treated with agonist plus DMSO alone compared to wells treated with a known inhibitor.
# human TLR9 = molecular target: T2, human TLR9 (Homo sapiens, UniProt Q9NR96); test: TLR7/8/9 Inhibition Reporter Assays (TLR9); conditions: HEK-Blue cells overexpressing human TLR9, SEAP reporter, stimulated with TLR9 ligand ODN2006
# T2 construct: host or cells: HEK-Blue cells (HEK293-derived reporter line)
# T2 sequence (Q9NR96 26-1032): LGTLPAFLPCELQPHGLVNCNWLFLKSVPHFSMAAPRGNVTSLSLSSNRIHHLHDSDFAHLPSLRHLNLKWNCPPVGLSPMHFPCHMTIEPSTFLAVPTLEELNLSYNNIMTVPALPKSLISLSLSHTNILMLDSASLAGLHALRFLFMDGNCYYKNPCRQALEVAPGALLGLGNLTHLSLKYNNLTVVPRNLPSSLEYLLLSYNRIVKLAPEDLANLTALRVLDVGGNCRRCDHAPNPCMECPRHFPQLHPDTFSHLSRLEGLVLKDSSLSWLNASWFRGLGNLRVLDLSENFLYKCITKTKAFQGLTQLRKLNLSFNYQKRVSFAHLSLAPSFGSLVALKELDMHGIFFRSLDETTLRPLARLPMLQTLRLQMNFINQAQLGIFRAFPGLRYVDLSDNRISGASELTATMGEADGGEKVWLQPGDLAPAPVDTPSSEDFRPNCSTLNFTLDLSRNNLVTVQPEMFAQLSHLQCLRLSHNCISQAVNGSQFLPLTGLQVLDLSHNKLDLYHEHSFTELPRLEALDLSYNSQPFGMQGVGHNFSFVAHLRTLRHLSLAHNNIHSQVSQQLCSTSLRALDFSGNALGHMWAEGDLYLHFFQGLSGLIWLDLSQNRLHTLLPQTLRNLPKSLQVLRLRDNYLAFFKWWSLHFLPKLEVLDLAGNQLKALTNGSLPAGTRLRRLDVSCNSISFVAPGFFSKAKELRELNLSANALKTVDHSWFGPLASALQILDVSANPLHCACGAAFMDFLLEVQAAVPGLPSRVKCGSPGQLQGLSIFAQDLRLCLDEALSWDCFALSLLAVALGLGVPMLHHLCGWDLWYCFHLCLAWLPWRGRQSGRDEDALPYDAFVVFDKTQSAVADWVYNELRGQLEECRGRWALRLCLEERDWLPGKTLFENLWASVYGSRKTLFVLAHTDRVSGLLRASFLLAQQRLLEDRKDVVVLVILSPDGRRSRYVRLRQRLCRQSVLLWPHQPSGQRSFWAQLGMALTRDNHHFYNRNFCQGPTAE
# Procedure: as §1
# human TLR8 = molecular target: T3, human TLR8 (Homo sapiens, UniProt Q9NR97); test: TLR7/8/9 Inhibition Reporter Assays (TLR8); conditions: HEK-Blue cells overexpressing human TLR8, SEAP reporter, stimulated with TLR8 ligand R848
# T3 construct: host or cells: HEK-Blue cells (HEK293-derived reporter line)
# T3 sequence (Q9NR97 27-1041): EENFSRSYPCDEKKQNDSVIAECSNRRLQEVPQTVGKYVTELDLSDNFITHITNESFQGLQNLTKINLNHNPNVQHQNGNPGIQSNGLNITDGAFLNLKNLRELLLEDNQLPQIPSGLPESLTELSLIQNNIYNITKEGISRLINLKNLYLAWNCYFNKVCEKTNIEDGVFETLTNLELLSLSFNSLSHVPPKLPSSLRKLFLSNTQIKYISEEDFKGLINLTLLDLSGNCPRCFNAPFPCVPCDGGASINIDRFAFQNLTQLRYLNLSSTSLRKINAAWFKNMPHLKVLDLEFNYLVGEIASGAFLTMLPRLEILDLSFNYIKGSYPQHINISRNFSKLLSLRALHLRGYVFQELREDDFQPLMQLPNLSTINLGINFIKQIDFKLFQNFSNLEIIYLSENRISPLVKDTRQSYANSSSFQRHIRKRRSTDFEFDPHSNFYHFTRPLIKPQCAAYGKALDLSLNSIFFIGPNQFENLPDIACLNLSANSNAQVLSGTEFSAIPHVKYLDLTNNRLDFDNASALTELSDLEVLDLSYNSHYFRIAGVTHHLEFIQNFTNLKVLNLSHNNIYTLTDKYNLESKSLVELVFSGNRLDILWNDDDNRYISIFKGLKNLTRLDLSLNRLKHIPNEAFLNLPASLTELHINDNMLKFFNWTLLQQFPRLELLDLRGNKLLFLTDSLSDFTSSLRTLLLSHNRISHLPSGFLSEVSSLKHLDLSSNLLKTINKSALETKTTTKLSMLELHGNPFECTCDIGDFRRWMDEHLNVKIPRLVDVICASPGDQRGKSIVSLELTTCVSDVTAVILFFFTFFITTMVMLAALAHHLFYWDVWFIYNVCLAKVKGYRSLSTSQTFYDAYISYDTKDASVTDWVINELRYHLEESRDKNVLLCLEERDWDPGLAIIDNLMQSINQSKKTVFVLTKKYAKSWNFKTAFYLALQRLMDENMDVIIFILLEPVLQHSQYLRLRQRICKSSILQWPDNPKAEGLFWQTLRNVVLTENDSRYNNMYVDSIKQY
# Procedure: as §1
Structure (SMILES),IC50 (human TLR7) [nM],IC50 (human TLR9) [nM],IC50 (human TLR8) [nM]
"Cc1nc(-c2ccc(N3C[C@@H]4CN(C5CCC5)C[C@@H]4C3)cc2)cc2c1nc(-c1ccc(S(C)(=O)=O)cc1)n2C [Example 69, 6-(4-((3aR,6aS)-5-cyclobutylhexahydropyrrolo[3,4-c]pyrrol-2(1H)-yl)phenyl)-1,4-dimethyl-2-(4-(methylsulfonyl)phenyl)-1H-imidazo[4,5-c]pyridine]",2800,37,5400
"Cc1nc(C2CCN(C3CCN(CC(C)C)CC3)CC2)cc2c1nc(-c1ccc(S(C)(=O)=O)cc1)n2C [Example 39, 6-(1′-isobutyl-[1,4′-bipiperidin]-4-yl)-1,4-dimethyl-2-(4-(methylsulfonyl)phenyl)-1H-imidazo[4,5-c]pyridine]",920,36,> 50000
"COc1ccc(-c2nc3cnc(-c4ccc(N5CCC6(CC5)CN(CC(C)C)C6)cc4)cc3n2C2CC2)cc1OC [Example 61, 1-cyclopropyl-2-(3,4-dimethoxyphenyl)-6-(4-(2-isobutyl-2,7-diazaspiro[3.5]nonan-7-yl)phenyl)-1H-imidazo[4,5-c]pyridine]",12000,160,12000
"CS(=O)(=O)c1ccc(-c2nc3cnc(-c4ccc(N5CCN(CCCN6CCOCC6)CC5)cc4)cc3n2C2CC2)cc1 [Example 55, 4-(3-(4-(4-(1-cyclopropyl-2-(4-(methylsulfonyl)phenyl)-1H-imidazo[4,5-c]pyridin-6-yl)phenyl)piperazin-1-yl)propyl) morpholine]",2400,99,640
"COc1ccc(-c2nc3c(C)nc(-c4ccc(N5CCN(C(C)C)CC5)cc4)cc3n2C)cc1OC [Example 1, 2-(3,4-dimethoxyphenyl)-6-(4-(4-isopropylpiperazin-1-yl)phenyl)-1,4-dimethyl-1H-imidazo[4,5-c]pyridine]",1000,220,7400
"COc1ccc(-c2nc3c(C)nc(-c4ccc(N5C[C@@H]6CN(C(C)C)C[C@@H]6C5)cc4)cc3n2C)cc1OC [Example 59, 2-(3,4-dimethoxyphenyl)-6-(4-((3aR,6aS)-5-isopropylhexahydropyrrolo[3,4-c]pyrrol-2(1H)-yl)phenyl)-1,4-dimethyl-1H-imidazo[4,5-c]pyridine]",1700,24,21000
"Cc1nc(-c2ccc(N3CCC4(CC3)CN(C(C)C)C4)cc2)cc2c1nc(-c1ccc(S(C)(=O)=O)cc1)n2C [Example 72, 6-(4-(2-isopropyl-2,7-diazaspiro[3.5]nonan-7-yl)phenyl)-1,4-dimethyl-2-(4-(methylsulfonyl)phenyl)-1H-imidazo[4,5-c]pyridine]",650,160,6000
"COCCN1CC2(C1)CN(c1ccc(-c3cc4c(nc(-c5ccc(S(C)(=O)=O)cc5)n4C)c(C)n3)cc1)C2 [Example 104, 6-(4-(6-(2-methoxyethyl)-2,6-diazaspiro[3.3]heptan-2-yl)phenyl)-1,4-dimethyl-2-(4-(methylsulfonyl)phenyl)-1H-imidazo[4,5-c]pyridine]",7700,210,16000
"Cc1nc(-c2ccc(N3CCN(CC4CC4)CC3)cc2)cc2c1nc(-c1ccc(S(C)(=O)=O)cc1)n2C [Example 20, 6-(4-(4-(cyclopropylmethyl)piperazin-1-yl)phenyl)-1,4-dimethyl-2-(4-(methylsulfonyl)phenyl)-1H-imidazo[4,5-c]pyridine]",2900,360,12000
"COc1ccc(-c2nc3c(C)nc(-c4ccc(N5CCC6(CC5)CN(CC(C)C)C6)cc4)cc3n2C)cc1OC [Example 75, 2-(3,4-dimethoxyphenyl)-6-(4-(2-isobutyl-2,7-diazaspiro[3.5]nonan-7-yl)phenyl)-1,4-dimethyl-1H-imidazo[4,5-c]pyridine]",890,97,28000
"Cc1nc(-c2ccc(C3CCN(C(C)C)CC3)cc2)cc2c1nc(-c1ccc(S(C)(=O)=O)cc1)n2C [Example 2, 6-(4-(1-isopropylpiperidin-4-yl)phenyl)-1,4-dimethyl-2-(4-(methylsulfonyl)phenyl)-1H-imidazo[4,5-c]pyridine]",12000,300,36000
